Drawing on the SangsterLogP compilation, this text covers logP for 30 molecules.

What is called logP is the decadic logarithm of the partition coefficient of the neutral form, usually between octanol and water. Read a high logP as a more lipophilic compound.

In the case of `O=C1c2c(O)cccc2C(C(=O)CCc2ccccc2)c2cccc(O)c21`, the logP is 4.63. To `O=C1c2c(O)cccc2C(=Cc2ccc(O)cc2)c2cccc(O)c21` belongs 4.52. `O=C1c2c(O)cccc2C(C(=O)Cc2cc(OCc3ccccc3)c(OCc3ccccc3)c(OCc3ccccc3)c2)c2cccc(O)c21` gave a logP of 6.11. In turn, `COc1cccc(C=CC(=O)C2c3cccc(O)c3C(=O)c3c(O)cccc32)c1` had a logP of 4.68. In turn, `O=C1c2c(O)cccc2C(C(=O)Cc2ccccc2)c2cccc(O)c21` registered a logP of 4.24. Molecule `O=C1c2c(O)cccc2C(C(=O)/C=C/c2ccccc2)c2cccc(O)c21` showed a logP of 4.6. In the case of `COc1ccc(C=C2c3cccc(O)c3C(=O)c3c(O)cccc32)cc1OC`, the logP is 5.05. In turn, `O=C1c2c(O)cccc2C(C(=O)Cc2ccc(OCc3ccccc3)cc2)c2cccc(O)c21` had a logP of 5.01. To `CC(C)(C)c1cc(CC(=O)C2c3cccc(O)c3C(=O)c3c(O)cccc32)cc(C(C)(C)C)c1O` belongs 5.33; to `O=C(O)c1ccc(C=C2c3cccc(O)c3C(=O)c3c(O)cccc32)cc1`, 4.4.

Turning to `COc1ccc(C=C2c3cccc(O)c3C(=O)c3c(O)cccc32)cc1`, the logP came to 5.53.

`O=C1c2c(O)cccc2C(=CCCc2ccccc2)c2cccc(O)c21` came in with a logP of 5.67. Consider `O=C1c2c(O)cccc2C(C(=O)Cc2ccc(O)c(O)c2)c2cccc(O)c21`, for which the logP is 3. Take `COC(=O)c1ccc(C=C2c3cccc(O)c3C(=O)c3c(O)cccc32)cc1`: the logP was 5.35. Molecule `O=C1c2c(O)cccc2C(C(=O)CCc2ccc(O)cc2)c2cccc(O)c21` displayed a logP of 3.73. Consider `N#Cc1ccc(C=C2c3cccc(O)c3C(=O)c3c(O)cccc32)cc1`, for which the logP turned out to be 4.58. Take `O=C1c2c(O)cccc2C(C(=O)Cc2cc(O)c(O)c(O)c2)c2cccc(O)c21`: the lipophilicity (logP) stood at 2.61. For the molecule `O=C1c2c(O)cccc2C(C(=O)CCCc2ccccc2)c2cccc(O)c21`, the logP was determined as 4.74. The molecule `O=C1c2c(O)cccc2C(C(=O)Cc2ccc([N+](=O)[O-])cc2)c2cccc(O)c21` had a logP of 3.96. Next, `O=C1c2c(O)cccc2C(=Cc2ccc([N+](=O)[O-])cc2)c2cccc(O)c21`: 4.96. Next, `O=C1c2c(O)cccc2C(C(=O)CCc2ccc(OCc3ccccc3)cc2)c2cccc(O)c21`: 5.63; `Cc1ccc(C=C2c3cccc(O)c3C(=O)c3c(O)cccc32)cc1`: 5.83. Regarding `O=C1c2c(O)cccc2C(=Cc2cc(O)c(O)c(O)c2)c2cccc(O)c21`, the logP is 3.32.

`O=C1c2c(O)cccc2C(C(=O)Cc2ccc(OCc3ccccc3)c(OCc3ccccc3)c2)c2cccc(O)c21` returned a logP of 5.43. The molecule `O=C1c2c(O)cccc2C(=Cc2ccc(C(F)(F)F)cc2)c2cccc(O)c21` came in with a logP of 5.48. `O=C1c2c(O)cccc2C(C(=O)Cc2ccc(O)cc2)c2cccc(O)c21` came in with a logP of 3.38. On to `COc1ccc(CCC(=O)C2c3cccc(O)c3C(=O)c3c(O)cccc32)cc1`, for which the logP was found to be 4.72.

With `O=C1c2c(O)cccc2C(C(=O)/C=C/c2ccc([N+](=O)[O-])cc2)c2cccc(O)c21`, the lipophilicity (logP) came out at 4.23. Take `COc1ccc(CC(=O)C2c3cccc(O)c3C(=O)c3c(O)cccc32)cc1`: the log partition coefficient (logP) is 4.2. Next, `COc1ccc(CCC(=O)C2c3cccc(O)c3C(=O)c3c(O)cccc32)cc1OC`: 4.21.
